Measurements published in patent publication US20240216412A1, “OXIDIZED NICOTINAMIDE ADENINE DINUCLEOTIDE (NAD+) PRECURSOR TREATMENT FOR HEART FAILURE ALLEVIATION INDEPENDENT OF MITOCHONDRIAL PROTEIN DEACETYLATION” (University of Washington, priority 2022, published 2024).

Legend:
[1] = test system: WT TAC heart transcriptome; assay: RNA sequencing with GSEA of TAC hearts; type: in vivo, mouse; conditions: NR treated TAC hearts vs vehicle
Procedure: RNA Sequencing. Total RNA was extracted from 30 mg of heart tissue using the Qiagen RNeasy kit. RNA Sequencing and quality control was performed BGI (BGISEQ-500). Data Analysis-RNAseq samples were aligned using Tophat (Trapnell et al., 2009) (version 2.0.13). Genelevel read counts were quantified using htseq-count (Anders et al., 2015). Genes expressed above 4TPM in at least 2 samples were used. In differential expression (DESeq), A gene to have total normalized reads above 10 across all samples. DeSeq (Anders and Huber, 2010) was used for differential gene expression analysis. Genes with fold change >1.5 and FDR <0.1 were considered differentially expressed. GSEA was performed using Broad Institute software against the Reactome database. Iregulon v1.3 was used to predict transcription factor binding motif. The following options were used: Motif collection 10 K (9713 PWMs), putative regulatory region 20 kb centered around TSS (7 species). Program default settings for Recovery and Transcription factor prediction options were selected for the analysis.

[2] = test system: RXRα; assay: Chromatin immunoprecipitation (ChIP) of RXRα at the Acadm promoter PPRE; type: in vivo; conditions: ISO mouse hearts, NR
Procedure: Chromatin immunoprecipitation (ChIP). The EZ ChIP kit (EMD Millipore catalog #17-371) was used according to the manufacturer's protocol. Briefly, heart tissue was cut into small pieces using a razor blade in a petri dish on ice. The cubed tissue was incubated in fixation solution (1% formaldehye) in a conical tube and rotated at room temperature for 15 minutes to crosslink proteins and chromatin. The reaction was stopped by adding 0.125M Glycine for 5 min at room temperature. The contents were homogenized with a hand-held tissue homogenizer for 45 seconds then pelleted by centrifugation for 3 minutes at 1,250×g at 4C. The supernatant was discarded and the pellet was resuspended in 10 ml ice-cold PBS wash buffer followed by centrifugation at 1,250×g for 3 minutes. This was wash step was repeated on ice. The supernatant was discarded and the pellet resuspended in 5 ml chromatin prep buffer and incubated on ice for 10 minutes. The resuspended pellet was homogenized on ice with a dounce homogenizer for 30 strokes and then contents transferred to new conical tube on ice. The suspension was centrifuged 3 minutes at 1,250×g at 4C then supernatant discarded. The pellet was resuspended in 1 ml Chip buffer and transferred to new centrifuge tube then incubated on ice for 10 minutes. […] Purified chromatin was analyzed on a 1% agarose gel to determine the shearing efficiency. […]

NC(=O)c1ccc[n+]([C@@H]2O[C@H](CO)[C@@H](O)[C@H]2O)c1 [NR, Nicotinamide riboside chloride]
Pathways of genes significantly downregulated (GSEA) [1]: enriched in pathways relating to collagen formation and extracellular matrix organization | Pathways of genes significantly upregulated (GSEA) [1]: enriched in pathways relating to mitochondrial metabolism | Binding occupancy of RXRα to the PPARα response element (PPRE) in the Acadm promoter [2]: increased
